Assay results from patent US5935591A, “Method for treatment of equine protozoal myeloencephalitis with thiazolides” (Romark Laboratories, L.C., priority 1998, dated 1999).
Values after ≈ are worked out from the molar mass of the structure shown. Like-named read-outs stand apart in the source and are kept apart here.

Experiments:
[1] = tested on: equine protozoal myeloencephalitis (Sarcocystis infection); assay: treatment of horses with nitazoxanide: symptoms of EPM; type: in vivo, horse
Experimental: (§1) All dosages were administered in solid (tablet) form.
(§2) This horse was positive for Sarcocystis infection in CSF and serum. […] The horse injured both hocks on day 12 by kicking the stall, resulting in edema of both rear limbs. […] On day 17 he was back to eating normally. Symptoms of EPM were gone by day 10 and have not returned.
(§3) This horse was positive for Sarcocystis infection in serological testing for antibody, showing no symptoms of the disease.
(§4) This horse was positive for Sarcocystis in serological testing for antibody, showing no symptoms of the disease.

Trichuris vulpis = settings: repeated doses; dogs; cited from earlier work
Thysanezia ovilla = settings: single oral dose; sheep; cited from earlier work
[2] = tested on: protozoan and helminthic pathogens; settings: cited from earlier work
[3] = tested on: Gram positive bacteria such as Staphylococcus aureus; settings: cited from earlier work
[4] = tested on: Avitellina centripunctata; settings: single oral dose; sheep; cited from earlier work
Sarcocystis spp. = assay: in vitro test system for activity against Sarcocystis spp.; type: cell-based; settings: for activity in inhibiting the growth of the protozoa: in words
[5] = safety and tolerance of nitazoxanide in horses; type: in vivo, horse; settings: for tolerance of the drug: oral
Experimental: as §1, §2, §3, §4

Hymenolepis nana = settings: mice; cited from earlier work
Uncinaria stenocephala = settings: repeated doses; dogs; cited from earlier work
Moniezia expansa = settings: single oral dose; sheep; cited from earlier work
Taenia pisiformis = settings: single oral dose; dogs; cited from earlier work
Taenia taeniaeformis = settings: single oral dose; cats; cited from earlier work
Dipylidium caninum = settings: single oral dose; dogs; cited from earlier work
[6] = tested on: facultative and obligate anaerobic Gram positive and Gram negative bacteria; settings: cited from earlier work
Stilesia globipunctata = settings: single oral dose; sheep; cited from earlier work
[7] = cited from earlier work
Syphacia obvelata = settings: mice; cited from earlier work

CC(=O)Oc1ccccc1C(=O)Nc1ncc([N+](=O)[O-])s1 [nitazoxanide, 2-(acetolyloxy)-N-(5-nitro 2-thiazoly) benzamide]
day by which symptoms of EPM were gone ([1]; Horse #1, Sarcocystis positive in CSF and serum, oral tablet, 50 mg/kg days 1-6, 100 mg/kg days 9-16, 150 mg/kg days 18-25): ≤ 10 days | reoccurrence of symptoms ([1]; Horse #1, monitoring continued for 23 days): no reoccurrence of symptoms | symptoms at the end of the trial and during the 30-day period after the trial ([1]; five horses, oral tablets, 50-150 mg/kg): absence of any symptoms | efficacy against gastrointestinal nematodes (Trichuris vulpis): also observed | cestocidal effect (Thysanezia ovilla): cestocidal effect | activity against protozoan and helminthic pathogens [2]: activity against a number of protozoan and helminthic pathogens | antibacterial effect [3]: effective | cestocidal effect [4]: cestocidal effect | 50% inhibitory concentration (growth of the protozoa) (Sarcocystis spp.): approximately 0.475 μg/ml | activity in inhibiting the growth of the protozoa (Sarcocystis spp.): highly active | eating of feed ([5]; Horse #1, days 15 and 16 (100 mg/kg days 9-16), back to eating normally on day 17): slow to finish eating feed | tolerance of the drug ([5]; Horse #2, 75 mg/kg days 1-6, 100 mg/kg days 9-16, 150 mg/kg days 18-25): tolerated the drug well at all dose levels | tolerance of the drug ([5]; Horse #3, 75 mg/kg days 1-6, 100 mg/kg days 9-16, 150 mg/kg days 18-27): tolerated the drug well at all dose levels | tolerance of the drug ([5]; Horse #4, 75 mg/kg days 1-6, 100 mg/kg days 9-16, 150 mg/kg days 18-27): tolerated the drug well at all dose levels | tolerance of the drug ([5]; Horse #5, 75 mg/kg days 1-6, 100 mg/kg days 9-16, 150 mg/kg days 18-27): tolerated the drug well at all dose levels | signs of toxicity ([5]; all five horses): no signs of toxicity | single dose activity (Hymenolepis nana): activity | efficacy against gastrointestinal nematodes (Uncinaria stenocephala): also observed | cestocidal effect (Moniezia expansa): cestocidal effect | cestocidal effect (Taenia pisiformis): cestocidal effect | cestocidal effect (Taenia taeniaeformis): cestocidal effect | cestocidal effect (Dipylidium caninum): cestocidal effect | antibacterial effect [6]: effective | cestocidal effect (Stilesia globipunctata): cestocidal effect | solubility ([7]; "either" (so in the source)): very poorly soluble | solubility ([7]; acetic acid): poorly soluble | solubility ([7]; acetone): fairly soluble | solubility ([7]; chloroform): poorly soluble | solubility ([7]; dioxane): fairly soluble | solubility ([7]; ethanol): poorly soluble | solubility ([7]; methyl benzene): very poorly soluble | solubility ([7]; pyridine): easily soluble | solubility ([7]; water): very poorly soluble | effect of repeated doses (Syphacia obvelata): effect

O=C(Nc1ncc([N+](=O)[O-])s1)c1ccccc1O [tizoxanide]
activity in inhibiting the growth of the protozoa (Sarcocystis spp.): highly active | IC50 (Sarcocystis spp.; read-out: 50% inhibitory concentration (growth of the protozoa)): ~0.475 µg/mL (≈ 1.79 µM)
